Measured values: US20230173295A1, “Systems, Devices, and Methods for Gamma Entrainment using Sensory Stimuli to Alleviate Cognitive Deficits and/or Neuroinflammation Induced by Chemotherapy Agents” (Massachusetts Institute of Technology, priority 2020, published 2023)
Entries after “also recorded” stand apart in the source; their conditions may differ.

Assays:
C57/BL6J male mouse [1] = assay: MTX induced chemo brain model: novel object recognition (NOR); format: in vivo; conditions: MTX without GENUS
Description: Animals were habituated in an OFT box for 10 min, 3 consecutive days. On the 4th day, two identical wooden blocks (Premium wooden building blocks set, Cubbie Lee) were placed in the chamber, and animals were allowed to explore the objects for 5 min, then the animals were returned to their home cage for 5 min. In the test phase, one of the wooden block is switched to a novel wooden block with a different shape, and the time spent exploring the familiar and new object was measured for 10 min. Discrimination ratio was calculated as time spent to explore the new object divided by the sum of time spent to explore both old and new object.
(§1) OFT, MWM behavior was tracked with a behavior tracking software (EthoVision XT, Nodulus). NOR and puzzle box behavior was scored by manual counting. Zeiss LSM 710 and Zeiss LSM 880 confocal microscope with Zen software was used to capture fluorescence images. A 3D image analysis software (IMARIS, Bitplane) was used to score Iba1 and GFAP positive voxels, and the area covered by MBP, ventricle size and cell number counting was scored with ImageJ software. Researcher was blinded for the experimental group during data analysis.

C57/BL6J male mouse [2] = assay: MTX induced chemo brain model: immunohistochemistry of brain slices; format: in vivo; conditions: MTX NS
Description: 30˜40 μm thick vibratome sectioned brain slices were washed in PBS, then incubated in a blocking solution (3% normal donkey serum (Millipore Sigma, S30-M) and 0.3% Triton X-100 (Sigma-Aldrich, T8787-100ML) in PBS) for 2 hrs. Then, slices were treated with a blocking solution containing α-Iba1 (1:500, Abcam, ab178846), α-GFAP (1:1000, Novus Biologicals, NBP1-05198), α-MBP (1:500, Millipore, AB9348), α-yH2AX (1:500, EMD Millipore, 05-636), α-Iba1 (1:500, SYSY, 234004), α-Olig2 (1:200, Abcam, ab109186), α-Pdgfra (1:100, Abcam, ab90967) and α-Dcx (1:500, Cell signaling technology, 4604S) in a 4° C.-10° C. controlled cold room for 2 overnight. […]
as §1, with “Researcher was blinded for the experimental group during data analysis.” left out

C57/BL6J male mouse [3] = assay: MTX induced chemo brain model: open field test (OFT); format: in vivo; conditions: MTX vs PBS
Description: Animals were placed in the center of 45×45 cm×40 cm (W×L×H) white acrylic box and their movement were tracked with a behavior tracking software (EthoVision XT, nodulus) for 10 min. 22.5 cm×22.5 cm area in the center of the box was marked as ‘center area’.
as §1

C57/BL6J male mouse [4] = assay: MTX induced chemo brain model: Morris water maze (MWM) test; format: in vivo
Description: A circular cylinder with 122 cm diameter was filled with tap water (22° C.-24° C.) and a white paint was added to make the water opaque. The area was divided into 4 equal quardrants and a 10 cm diameter platform was placed in the center of the target quardrant (TQ), the platform being 1 inch lower than the water level. On the first day of training, animals were placed on the platform for 30 seconds, and then retrieved from the water (priming). After 1 minute of priming, animals were placed into the chamber facing the chamber wall. Time to reach the platform was measured when the animal was sitting on the platform for >1s. For 5 consecutive days, animals performed two trials, spaced 1 min. After 5 days of training, the platform was removed from the chamber, and the animals were placed in the center of the chamber. For 1 min duration, time spent in TQ were measured Novel Object Recognition (NOR)
as §1

C57/BL6J male mouse [5] = assay: MTX induced chemo brain model: survival rate and body weight; conditions: 100 mg/kg MTX i.p.
Description: P21 C57/BL6J male mouse received i.p. injection of either 100 mg/kg MTX or volume-matched PBS on P21, P28, P35 (i.e., 21 days after birth/21 days old, 28 days old, 35 days old) (FIG. 1A). Stim (S) group received 1 hr of 40 Hz audio+visual sensory stimulation immediately after the first injection, and then received 1 hr stimulation every day after that day's injection until the day before they were sacrificed. No stim (NS) group stayed under a dim light for 1 hr immediately after the first injection, and then stayed under a dim light for 1 hr every day until the day before they were sacrificed. Every animal was single-caged in a caged covered with a black-plastic bag on every wall but one side for the duration of 1 hr stim/sham period and then group housed with their littermates.
Another chemotherapeutic agent, methotrexate (MTX)-induced chemo brain animals were tested.

C57/BL6J male mouse [6] = assay: MTX induced chemo brain model: puzzle box test; format: in vivo; conditions: MTX treatment
Description: Animals were placed in a testing arena containing a lighted (55 cm×28 cm) and a dark (15 cm×28 cm) compartment with a connecting tunnel (4 cm×4 cm×2.5 cm), facing the farthest wall from the dark compartment. 3 trials were performed for 3 days. 1 introductory period without any obstacles blocking the tunnel and 2 ‘easy task’ in which animals have to pass a corridor (4 cm×4 cm×12 cm). On day 2, 1 ‘easy task’ and 2 ‘intermediate task’ in which the corridor is blocked with sawdust and the animals have to dig through to reach the dark chamber were performed. On day 3, 1 ‘intermediate task’ and 2 ‘hard task’ where the tunnel was plugged with a tissue were performed. Time of the first entry to the dark chamber was recorded for every trials.
as §1

For `CN(Cc1cnc2nc(N)nc(N)c2n1)c1ccc(C(=O)N[C@@H](CCC(=O)O)C(=O)O)cc1` [MTX, methotrexate], the “NOR: time exploring novel and familiar object” value (C57/BL6J male mouse [1]) was “spent comparable time exploring noble and familiar object”, the “Iba1 signal in corpus callosum” value (C57/BL6J male mouse [2]) was “dramatically increased; also recorded: significantly higher” and the “locomotion in OFT” value (C57/BL6J male mouse [3]) was “neither GENUS nor methotrexate (MTX) treatment affected locomotion”. For the same compound, the “time spent in center area during OFT” value (C57/BL6J male mouse [3]) was “GENUS but not MTX significantly increased time spent in center area”, the “MWM performance: swimming speed, spatial learning and memory” value (C57/BL6J male mouse [4]; PBS NS, MTX NS, PBS S, MTX S) was “comparable performance in swimming speed, spatial learning and memory” and the MWM learning curve (C57/BL6J male mouse [4]; mouse, in vivo) was “neither MTX nor GENUS altered learning curve”. The MWM swimming speed (C57/BL6J male mouse [4]; mouse, in vivo) was “neither MTX nor GENUS altered swimming speed”, the survival rate (C57/BL6J male mouse [5]; 1 week after the first administration) was about 60% and the lethality (C57/BL6J male mouse [5]; within 1 week after the first MTX injection) was 40%. The “puzzle box test performance” value (C57/BL6J male mouse [6]) was “cognitive impairment”.
